This is an account of results in publication PMC5849682, “Novel 2-pheynlbenzofuran derivatives as selective butyrylcholinesterase inhibitors for Alzheimer’s disease” (Scientific Reports, 2018).

SMILES strings stand for the structures.

Data set [1] concerns the target T1, EeAChE (Electrophorus electricus, UniProt O42275).
T1 construct: purchased Sigma-Aldrich
In words: biochemical. The class given is biochemical. Particulars: for IC50: mean ± SD, n = 3. The protocol:
(§1) The enzymes and reagents for biochemical assays were obtained from Sigma-Aldrich. Kinetic assays of cholinesterase activity were performed using Ellman’s method and analyzed as previously described. Briefly, in the microplate assay the reaction mixture contained phosphate buffer (0.1 M, pH 8.0), AChE or BChE solution (0.3 or 0.15 U/mL respectively), 5,5′-dithiobis-(2-nitrobenzoic) acid (DTNB; 1.5 mM), and inhibitor dissolved in 1% DMSO at the desired concentrations or DMSO alone (control) in a final volume of 0.2 mL. […] The activity of the enzymes was performed at 25 °C.
(§2) Acetylcholinesterase was from Electrophorus electricus (EeAChE), while butylcholinesterase was from equine serum (eqBChE) or human serum (hBChE).
(§3) IC50 values were calculated by the interpolation of dose-response curves using GraphPad Prism 6 (Graphpad Software, San Diego, California, USA).

Data set [2] addresses T2, eqBChE (Equus caballus, UniProt P81908).
T2 construct: butylcholinesterase was from equine serum (eqBChE); purchased Sigma-Aldrich; host or cells: equine serum
As to the kind of experiment: biochemical. Particulars: for Selectivity to eqBChE: IC50 for AChE/IC50 for BChE; for IC50: mean ± SD, n = 3. The class given is biochemical. Here is the method:
as §1, §2, §3

The nature of data set [3]: ABTS radical-scavenging antioxidant assay. Particulars: mean ± SD of three independent experiments. Here is the method:
Total free radical-scavenging capacity of the compounds was determined by ABTS^.+ [2,2′-azinobis-(3-ethylbenzothiazoline-6-sulfonic acid)] method using Trolox as antioxidant standard, as previously reported.

In data set [4] the target is T3, hBChE (Homo sapiens, UniProt P06276).
T3 construct: butylcholinesterase was from equine serum (eqBChE) or human serum (hBChE); purchased Sigma-Aldrich; host or cells: human serum
In words: Cholinesterase assay (Ellman's method), hBChE. The class given is biochemical. Particulars: for IC50: mean ± SD, n = 3; for hBChE inhibitory activity, times more active than galantamine: relative to reference compound galantamine, same assay conditions. Here is the method: as §1, §2, §3

Data set [5] has as its target T2, eqBChE. As to the kind of experiment: Kinetic study of eqBChE inhibition (Lineweaver-Burk plots). The class given is biochemical. Particulars: for type of inhibition: Lineweaver-Burk plot analysis; for KIS (binding with the enzyme-substrate complex): secondary plot of 1/Vmax versus compound concentration; for KIS (binding with the enzyme-substrate complex) / Ki: substrate BTCI; for Ki: secondary plot of slope (Km/Vmax) versus compound concentration, read-out: KI (binding with the free enzyme). The protocol:
. Further to evaluate the selective characteristics and type of inhibition, we investigated the kinetic behaviour of eqBChE at different concentration of S-butyrylthiocholine iodide (BTCI) and inhibitors by Lineweaver-Burk plot analysis (Fig. 2).
The enzymes and reagents for biochemical assays were obtained from Sigma-Aldrich. Kinetic assays of cholinesterase activity were performed using Ellman’s method and analyzed as previously described. Briefly, in the microplate assay the reaction mixture contained phosphate buffer (0.1 M, pH 8.0), AChE or BChE solution (0.3 or 0.15 U/mL respectively), 5,5′-dithiobis-(2-nitrobenzoic) acid (DTNB; 1.5 mM), and inhibitor dissolved in 1% DMSO at the desired concentrations or DMSO alone (control) in a final volume of 0.2 mL. Finally, acetylthiocholine iodide (ATCI) or S-butyrylthiocholine iodide (BTCI) (1.5 mM) as the substrate was added to the reaction mixture and the absorbance immediately monitored at 405 nm. The activity of the enzymes was performed at 25 °C.
Kinetic characterization was performed by constructing Lineweaver-Burk plots by plotting 1/V vs 1/[S] in the presence of different concentrations of inhibitor and substrate. Kinetics constants were determined by the replots of the Slopes (KM/Vmax) or 1/Vmax versus the inhibitor concentration.

The subject of data set [6] is NSC-34 cells. In words: MTT cell viability assay. The class given is cell-based, Mouse. Particulars: 0–100 μM, 24 h, at the concentration in which eqBChE activity was inhibited. Here is the method: After obtaining encouraging results from the inhibitory assay experiments, biosafety effectiveness of the two promising compounds (15 and 17) was further evaluated. Cells were treated with different concentration of each compound (0–100 μM) for 24 h and their potential cytotoxic effect on NSC-34 cells was determined by using MTT assay. Viability of the cells treated with the compounds 15 and 17 and comparison to the control cells were performed (Fig. 4).
Mouse motor neuron like cell line (NSC-34) was purchased from the American Type Culture Collection (ATCC, Manassas, Virginia, USA). The cells were cultured in Dulbecco’s Modified Eagle Medium (DMEM) containing 10% fetal bovine serum (FBS; Gibco, NY, USA), and 1% penicillin/streptomycin at 37 °C in a humidified atmosphere with 5% CO2. Cell viability was detected by the colorimetric 3-(4,5-dimethylthiazol-2-yl)-2,5-diphenyltetrazolium bromide (MTT) assay. This is a colorimetric assay for measuring the activity of mitochondrial enzymes in living cells that convert MTT into purple formazan crystals. Briefly, cells were seeded in a 96-well plate (10^4 cells/well) and incubated with samples at concentration ranging from 10 to 100 μM for […]. […] The resulting violet formazan precipitates were dissolved in isopropanol and the absorbance of each well was determined at 590 nm using a microplate reader with a 630 nm reference.

Data set [7] has as its system BChE. Particulars: previous study ref 34; cited from earlier work.

T3 sequence (P06276 29-602): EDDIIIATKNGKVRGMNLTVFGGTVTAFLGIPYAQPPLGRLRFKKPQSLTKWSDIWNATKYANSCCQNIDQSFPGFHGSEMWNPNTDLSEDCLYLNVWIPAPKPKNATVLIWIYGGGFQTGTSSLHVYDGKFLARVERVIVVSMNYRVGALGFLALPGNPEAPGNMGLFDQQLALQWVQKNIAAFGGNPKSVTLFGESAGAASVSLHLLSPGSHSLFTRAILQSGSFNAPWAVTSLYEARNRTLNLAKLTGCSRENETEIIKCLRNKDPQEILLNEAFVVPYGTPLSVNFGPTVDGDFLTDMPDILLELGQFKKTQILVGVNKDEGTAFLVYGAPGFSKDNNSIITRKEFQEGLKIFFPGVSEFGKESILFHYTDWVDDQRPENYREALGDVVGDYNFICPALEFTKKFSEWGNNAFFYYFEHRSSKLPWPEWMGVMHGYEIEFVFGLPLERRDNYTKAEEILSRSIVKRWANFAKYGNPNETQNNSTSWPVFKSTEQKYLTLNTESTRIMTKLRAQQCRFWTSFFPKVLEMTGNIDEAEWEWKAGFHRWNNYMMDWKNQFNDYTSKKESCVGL
T1 sequence (O42275 24-633): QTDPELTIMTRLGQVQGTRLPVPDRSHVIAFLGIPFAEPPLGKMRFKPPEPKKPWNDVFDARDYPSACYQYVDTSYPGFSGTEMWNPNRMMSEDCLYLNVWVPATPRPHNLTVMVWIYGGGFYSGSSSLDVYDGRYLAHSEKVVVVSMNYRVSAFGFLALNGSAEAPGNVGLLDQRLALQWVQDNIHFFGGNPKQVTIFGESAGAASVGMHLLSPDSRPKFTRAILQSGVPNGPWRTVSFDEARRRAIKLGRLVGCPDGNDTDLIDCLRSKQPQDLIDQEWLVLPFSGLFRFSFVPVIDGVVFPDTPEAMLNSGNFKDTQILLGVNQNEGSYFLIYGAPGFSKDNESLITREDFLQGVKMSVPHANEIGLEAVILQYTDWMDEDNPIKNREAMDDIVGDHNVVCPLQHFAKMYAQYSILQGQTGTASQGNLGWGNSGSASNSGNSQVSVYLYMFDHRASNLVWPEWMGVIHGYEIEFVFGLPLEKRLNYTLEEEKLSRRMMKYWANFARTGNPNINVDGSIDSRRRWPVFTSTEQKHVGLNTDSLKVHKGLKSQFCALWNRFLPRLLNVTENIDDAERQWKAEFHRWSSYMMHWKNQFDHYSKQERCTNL
T2 sequence (P81908 whole entry): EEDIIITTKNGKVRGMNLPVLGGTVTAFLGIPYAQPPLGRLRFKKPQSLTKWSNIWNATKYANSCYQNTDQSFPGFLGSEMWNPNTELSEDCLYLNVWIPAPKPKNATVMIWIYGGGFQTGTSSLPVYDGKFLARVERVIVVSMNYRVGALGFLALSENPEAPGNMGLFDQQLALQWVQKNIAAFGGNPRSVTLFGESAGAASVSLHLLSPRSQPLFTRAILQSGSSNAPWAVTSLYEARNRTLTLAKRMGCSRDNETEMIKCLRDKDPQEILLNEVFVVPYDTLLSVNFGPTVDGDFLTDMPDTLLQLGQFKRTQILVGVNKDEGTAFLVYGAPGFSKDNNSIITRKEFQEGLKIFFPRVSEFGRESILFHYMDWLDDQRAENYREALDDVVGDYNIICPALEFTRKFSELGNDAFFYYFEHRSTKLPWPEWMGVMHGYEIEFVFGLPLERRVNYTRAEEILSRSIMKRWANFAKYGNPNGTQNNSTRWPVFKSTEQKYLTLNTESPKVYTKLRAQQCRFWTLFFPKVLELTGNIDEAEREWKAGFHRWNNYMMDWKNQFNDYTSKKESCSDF

In data set [1], `Cc1cccc2cc(-c3cc(O)c(O)c(O)c3)oc12` [Compound 26] registered an IC50 of 66 ± 5.4 µM. Also, in data set [2], the “Selectivity to eqBChE” value is on record as 3.3 and it took 19.8 ± 1.2 µM to reach half-maximal inhibition (IC50). Besides, a half-maximal effect in data set [3] (EC50) was put at 6.6 ± 0.24 µM.
Regarding `Oc1cc(-c2cc3ccccc3o2)cc(O)c1O` [Compound 28], in data set [1], the “cholinesterase inhibitory activity (EeAChE)” value is “did not exert any cholinesterase inhibitory activity” and the half-maximal inhibitory concentration (IC50) was greater than 100 µM. In data set [2], the “cholinesterase inhibitory activity (eqBChE)” value is “did not exert any cholinesterase inhibitory activity” and the IC50 is greater than 100 µM. The molecule also had an EC50 in data set [3] of 52.8 ± 2.43 µM.
In data set [1], `Cc1ccc2oc(-c3cc(O)c(O)c(O)c3)cc2c1` [Compound 27] yielded an IC50 of no less than 100 µM. Further, in data set [2], the “Selectivity to eqBChE” value is greater than 6.2 and the IC50 was 16.1 ± 1.05 µM. A half-maximal effect in data set [3] (EC50) was put at 8.93 ± 0.57 µM.
In turn, `Oc1cc(O)cc(-c2cc3cccc(Br)c3o2)c1` [Compound 17] showed an IC50 in data set [1] of 100 ± 6.1 µM. In data set [2], the “Selectivity to eqBChE” value was found to be 28.0 and inhibition was half-maximal at 3.57 ± 0.25 µM (IC50). Further, the “eqBChE inhibitory activity, times more active than galantamine” value in data set [2] (relative to reference compound galantamine) is on record as roughly 8 times. In data set [4], the IC50 came to 27.5 ± 1.53 µM and the “hBChE inhibitory activity, times more active than galantamine” value came out at 2 times. Further, in data set [5], the type of inhibition entry is on record as “non-competitive inhibitor”, the “KIS (binding with the enzyme-substrate complex)” value came out at 4.7 µM and the Ki stood at 4.3 µM. Moreover, the EC50 in data set [3] was 16.7 ± 1.31 µM. Also, in data set [6], the cytotoxic effect result is “no considerable cytotoxic effect”.
`Oc1cc(-c2cc3cc(Br)ccc3o2)cc(O)c1O` [Compound 25]: the IC50 in data set [1] stood at 25 ± 1.9 µM; in data set [2], 27.6 ± 1.9 µM. Also, in data set [2], the “Selectivity to eqBChE” value is 0.90. Also, in data set [3], the EC50 stood at 9.46 ± 0.68 µM.
On the same counts, the results for `Oc1cc(-c2cc3cc(Cl)ccc3o2)cc(O)c1O` [Compound 23] are 30 ± 2.8 µM, 38.2 ± 2.4 µM, 0.78 and 12.5 ± 0.44 µM.
On the same counts, the results for `Oc1cc(O)cc(-c2cc3cc(Br)ccc3o2)c1` [Compound 18] are 66 ± 4.2 µM, 30 ± 2.7 µM, 2.2 and 17.5 ± 0.93 µM.
On to `Oc1cc(-c2cc3cccc(Cl)c3o2)cc(O)c1O` [Compound 22], for which the IC50 in data set [1] worked out at 50 ± 3.3 µM. In data set [2], the “Selectivity to eqBChE” value is 1.9 and the IC50 worked out at 25.7 ± 1.6 µM. In addition, the EC50 in data set [3] came out at 26.3 ± 1.46 µM.
As for `Oc1cc(O)cc(-c2cc3cc(Cl)ccc3o2)c1` [Compound 16], the IC50 amounted to 80 ± 7.3 µM in data set [1] and 36.6 ± 2.9 µM in data set [2]. Moreover, the “Selectivity to eqBChE” value in data set [2] was determined as 2.2. This molecule had an EC50 in data set [3] of 17.6 ± 0.82 µM.
In data set [1], `Oc1cc(O)cc(-c2cc3ccccc3o2)c1` [Compound 21] came in with an IC50 greater than 100 µM. In data set [2], the “Selectivity to eqBChE” value is recorded as greater than 4.0 and inhibition was half-maximal at 25.2 ± 1.3 µM (IC50). In data set [3], this molecule displayed an EC50 of 23.2 ± 1.54 µM.
Regarding `COc1ccc2c3c1O[C@H]1C[C@@H](O)C=C[C@@]31CCN(C)C2` [Galantamine], the IC50 in data set [7] was […].
In data set [1], `Oc1cc(-c2cc3cccc(Br)c3o2)cc(O)c1O` [Compound 24] came in with an IC50 of 37 ± 2.6 µM. In data set [2], the “Selectivity to eqBChE” value is listed as 2.0 and 18.4 ± 0.93 µM corresponded to half-maximal inhibition (IC50). Besides, the EC50 in data set [3] was found to be 15.4 ± 0.81 µM.
Regarding `Cc1c(C)c2c(c(C)c1O)CCC(C)(C(=O)O)O2` (stereo not drawn) [Trolox, reference compound], a half-maximal response in data set [3] (EC50) required 13 ± 1.1 µM.
Regarding `Cc1cccc2cc(-c3cc(O)cc(O)c3)oc12` [Compound 19], in data set [1], the IC50 is greater than 100 µM. In data set [2], the “Selectivity to eqBChE” value is recorded as greater than 10.0 and it took 10 ± 0.96 µM to reach half-maximal inhibition (IC50). This molecule returned an EC50 in data set [3] of 19.3 ± 1.43 µM.
On the same counts, the results for `Cc1ccc2oc(-c3cc(O)cc(O)c3)cc2c1` [Compound 20] are greater than 100 µM, greater than 8.0, 12.5 ± 1.29 µM and 18.2 ± 0.86 µM.
As for `Oc1cc(O)cc(-c2cc3cccc(Cl)c3o2)c1` [Compound 15], the IC50 in data set [1] is no less than 100 µM. In data set [2], the “Selectivity to eqBChE” value is reported as greater than 16.0 and the IC50 was 6.23 ± 0.43 µM. In addition, in data set [4], 27.5 ± 1.82 µM corresponded to half-maximal inhibition (IC50) and the “hBChE inhibitory activity, times more active than galantamine” value is given as 2 times. In data set [5], the type of inhibition result is on record as “mixed-type inhibitor”, the “KIS (binding with the enzyme-substrate complex)” value was 8.66 µM and the Ki was 13.9 µM. The molecule also returned an EC50 in data set [3] of 14.9 µM. The cytotoxic effect entry in data set [6] is listed as “no considerable cytotoxic effect”.
